Measurements reported in patent US8138188B2, “Melanocortin type 4 receptor agonist piperidinoylpyrrolidines” (Pfizer Inc., priority 2006, dated 2012).
Each block holds one compound with its values, some of them ahead of it.

Legend:
MC4 receptor = MC4 receptor (Homo sapiens, UniProt P32245); assay: MC4 functional agonist potency (EC50), assay protocol E of US2005/0176772 / WO 2005/077935; type: cell-based; details: functional potency at the MC4 receptor
Procedure: The compounds of formula (I) of the present invention have utility as MCR4 agonists in the treatment of various disease states.
MC5 and MC4 EC50 activity was determined as described by assay protocols D and E, respectively, in US2005/0176772 (pages 28-30).

MC4 receptor (MC4R) = molecular target: T1, MC4 receptor (MC4R) (Homo sapiens, UniProt P32245); assay: AGRP inhibition: competition binding vs [125I]AGRP(87-132) at CHO-CRE MC4R cell membranes; details: vs 0.3 nM [125I]AGRP(87-132)
T1 construct: expressed in transfected cells; host or cells: CHO-CRE MC4R cells (membranes)
Source text: Agouti related protein (AGRP) is a high affinity endogenous antagonist/inverse agonist for the MC4 receptor (Lu et al., 1994, Nature 371: 799-802; Oilman et al., 1997, Science 278: 135-138). […] It has been ascertained that this C-terminal fragment of AGRP contains the MC4R binding determinants (Yang et al., 1999, Mol Endocrinol 13: 148-155), therefore, compounds can be evaluated for their ability to inhibit AGRP binding to membranes from cells expressing the MC4R using a competition binding assay versus [^125I]AGRP(87-132). To this end cells expressing the MC4R were subject to homogenisation and the membrane fragment isolated by differential centrifugation. CHO-CRE MC4R cell membranes (12 μg protein) were incubated with 0.3 nM [^125I]AGRP(87-132) and 11 half-log concentrations of competitor ligand, in duplicate, in a total volume of 100 μl buffer (25 mM HEPES, 1 mM MgCl2, 2.5 mM CaCl2, 0.5% BSA pH 7.0). Non-specific binding was determined by the inclusion of 1 μM SHU9119. The reaction was initiated by the addition of membranes and plates were incubated at room temperature for 2 hours. The reaction was terminated by rapid filtration onto GF/C filters (presoaked in 1% PEI) using a vacuum harvester followed by five 200 μl washes of ice cold wash buffer (Binding buffer containing 500 mM NaCl). The filters were soaked in 50 μl scintillation fluid and the amount of radioactivity present was determined by liquid scintillation counting. Ki values were determined by data analysis using appropriate software.

[1] = In vitro metabolism rate determination, human liver microsome (HLM) assay; type: in vitro ADME; details: human liver microsomes, substrate 1 μM; read-out: HLM (intrinsic clearance)
Source text: (§1) In vitro Metabolism Rate Determination (Human Liver Microsome (HLM); Rat Liver Microsome (RLM) Assay)
(§2) Many drugs are metabolised by the cytochrome P450 mono-oxygenase system. This enzyme is found in high concentrations in the liver and is bound to the endoplasmic reticulum of the hepatocyte. The enzyme system can be obtained in semi-purified state by the preparation of the hepatic microsomal fractions. Determining a compound's in vitro half-life in such a system provides a useful indicator of metabolic stability.
(§3) Methodology For In Vitro Rate Determination Using Hepatic & Supermix Microsomes
(§4) The method outlined below is for a total incubation volume of 1.5 ml.
(§5) 1. The following mixture is prepared in a test tube:
(§6) 2. Defrost microsomes at room temperature and add sufficient microsomes to give a final concentration of 0.5 nmol cytochrome P450/ml of incubation e.g. for a 1.5 ml incubation, the volume of microsomes to be added is:
(§7) [formula] 3. Add sufficient MilliQ water to give a total incubation volume of 1.425 ml. 4. Remove 237.5 μl of incubation mix and place in test tube for PNA positive control. Add 2.5 μl of PNA solution, whirlimix, and put tube into a rack in the thermostatically controlled shaking water bath 5. Remove 100 μl for no substrate control and dispense in test tube. Place test tube in a rack in the thermostatically controlled shaking water bath. 6. Add substrate to the incubation. The substrate should be at an initial concentration of 1 μM. The volume of substrate required in the remaining 1.162.5 ml incubation is calculated as follows:
(§8) [formula] • N.B. The volume of organic solvent added should not exceed 0.1% of the total incubation volume. 7. Remove 100 μl of incubation mix into test tube for no cofactor control. Whirlimix and put into a rack in the thermostatically controlled shaking water bath. 8. Pre-incubate the tube containing the incubation mix, also positive control and no cofactor tubes in the thermostatically controlled shaking water bath set at 37° C. for approx 5 min. 9. Add NADP to initiate reaction (75 μl to each 1.162.5 ml incubation mix, 12.5 μl to positive control tube and 5 μl to no substrate tube) and take first time point immediately. The PNA positive control, no cofactor control and no substrate tubes are incubated for the total incubation time. 10. Remove 100 μl aliquots up to 9 different sampling points from 0 to 60 min (usually 0, 3, 5, 10, 15, 20, 30, 45 & 60 min) and terminate reaction. Longer incubation times can be used, but, after 120 min the microsomes deteriorate. The reaction may be terminated by addition of organic solvent, acid or base. At the end of the incubation process the no cofactor and no substrate controls in a similar manner i.e. terminate with the same reagent. 11. PNA Positive Control Procedure: • After the final sample has been taken, remove the positive control and add 1 ml 20% TCA to this tube. Also prepare a tube containing 250 μl of a PNP standard at 50 μM, and add 1 ml 20% TCA. Whirlimix both tubes and leave for approx 5 min to allow the protein to precipitate. • Centrifuge both tubes for approx 5 min in an instrument set at 3500 rpm. Remove 1 ml of supernatant and place into clean test tubes, discard the remainder. • Add 1 ml 10M NaOH to the supernatant, whirlimix, and leave to stand for approx min. Blank spectrophotometer with distilled water at 400 nm then measure absorbance of the PNP standard against distilled water. The microsomal 4-nitroanisole O-demethylase activity is calculated as follows: Calculation of Results
(§9) [formula] • The activity value from the incubation MUST be equal to or greater than 85% of the mean value of the batch used for the incubation to be valid. If this criteria is not met, then the incubation must be repeated. 11. Analyse samples (including no cofactor and no substrate control) by a specific assay for the substrate to determine the disappearance kinetics. Analysis Of Data […]

[2] = In vitro metabolism rate determination, rat liver microsome (RLM) assay; type: in vitro ADME; details: rat liver microsomes, substrate 1 μM; read-out: RLM (intrinsic clearance)
Source text: as §1, §2, §3, §4, §5, §6, §7, §8, §9

human MC3 receptor = molecular target: T2, human MC3 receptor (Homo sapiens, UniProt P41968); assay: In vitro agonist potency (EC50) against melanocortin receptor type 3, cAMP in recombinant cell line; type: cell-based; details: cell line stably transfected with human MC3, 1 hour at 37° C.
T2 construct: stably transfected with full length cDNA encoding human MC1 or MC3 receptors; expressed in transfected cells; host or cells: Chinese hamster ovary cell line (MC3; 'respectively')
Procedure: Measurement of In Vitro Agonist Potency (EC50) of Compounds Against Melanocortin Receptors Type 1 and 3 (MC1 and MC3).
Activation of melanocortin (MC) receptors by agonists results in activation of intracellular adenylate cyclase enzymes that synthesise the second messenger signalling molecule, adenosine 3′,5′-cyclic monophosphate (cAMP). Changes in cAMP levels following treatment of recombinant MC1 and MC3 cell lines with test compound were measured and an MC1 and MC3 potency estimate (EC50) calculated as follows: […]
Human embryonic kidney (HEK) or Chinese hamster ovary cell lines stably transfected with full length cDNA encoding human MC1 or MC3 receptors, respectively, were established using standard molecular biology methods. Test compounds were dissolved in dimethyl sulfoxide (DMSO) at 4 mM. 11 point half log unit increment dilution series of test compound, typically starting at 50 uM were prepared in a buffer comprised of phosphate buffered saline (PBS), 2.5% DMSO and 0.05% pluronic F-127 surfactant. Freshly cultured cells at 80-90% confluence were harvested and re-suspended in Dulbecco's Modified Eagle's Medium (DMEM). Cells (10,000 for MC3, 20,000 for MC1) were added to the test compound dilution series in a 384 well assay plate and incubated for 1 hour at 37° C. The relative cAMP concentration in each well was then measured using a β-galactosidase enzyme fragment complementation method purchased in kit form as the Discoverx cAMP II kit from GE Healthcare/Amersham Biosciences UK. In the case of MC1,3-Isobutyl-1-methylxanthine (IBMX) at a concentration of 750 μM was included in DMEM as the cells were re-suspended for assay. […] Sigmoidal curves were fitted to plots of log10 inhibitor concentration vs percent effect using a custom made software application called SIGHTS and EC50 estimates determined by the software as the concentration of test compound giving an effect half way between the bottom and top assymptopes of the sigmoidal dose response curve. Each experiment included an EC50 determination for alpha melanocyte stimulating hormone, which was used as a standard to track assay consistency and allow fair comparison between EC50 estimates obtained in different experiments.

CYP3A4 = molecular target: T3, CYP3A4 (Homo sapiens, UniProt P08684); assay: High density drug-drug interactions (DDI) 3 μM cocktail screen in human liver microsomes; type: in vitro ADME; details: 3 uM test compound, pooled human liver microsomes, probe midazolam 2 μM; read-out: % Inhibition of 3A4 metabolism at 3 uM
T3 construct: utilizes human liver microsomes together with isoform-specific clinical drug probes; from tissue; host or cells: human liver microsomes
Procedure: High Density Drug-Drug Interactions (DDI) 3 μM Cocktail Screen
A drug interaction is a situation in which a substance affects the activity of another drug, i.e. the effects are increased or decreased, or together they produce a new effect that neither produces on its own. Drug interactions may be the result of various processes but a relatively common one is where one drug affects the pharmacokinetics of another by inhibiting the cytochrome P450 that metabolises it. Because of the importance of these phenomena, assessment of the DDI potential for new chemical entities (NCEs) is considered important early on in the drug discovery process.
The DDI cocktail screen in human liver microsomes (HLM) is run in a fully automated fashion and the aim of the screen is to provide a single-point assessment of the DDI potential of new chemical entity (NCE; tested at 3 μM) against the 4 primary cytochrome P450 enzymes, 1A2, 2D6, 2C9 and 3A4.
The substrate cocktail approach for P450 DDI utilizes human liver microsomes together with isoform-specific clinical drug probes and permits the simultaneous measurement of the inhibition of P450 1A2, 2C9, 2D6 & 3A4 activities in a single incubation. This is run in high throughput with simultaneous detection of metabolites by LC-MS/MS. This method has been thoroughly tested and evaluated using standard compounds.
Appearance of the metabolite of each substrate is measured over time in the presence and absence of the NCE (test compound/inhibitor) at a concentration of 3 μM. The compounds are assessed for their inhibitory potential as a percentage value and interpreted using the following scheme.

T1 sequence (P32245 whole entry): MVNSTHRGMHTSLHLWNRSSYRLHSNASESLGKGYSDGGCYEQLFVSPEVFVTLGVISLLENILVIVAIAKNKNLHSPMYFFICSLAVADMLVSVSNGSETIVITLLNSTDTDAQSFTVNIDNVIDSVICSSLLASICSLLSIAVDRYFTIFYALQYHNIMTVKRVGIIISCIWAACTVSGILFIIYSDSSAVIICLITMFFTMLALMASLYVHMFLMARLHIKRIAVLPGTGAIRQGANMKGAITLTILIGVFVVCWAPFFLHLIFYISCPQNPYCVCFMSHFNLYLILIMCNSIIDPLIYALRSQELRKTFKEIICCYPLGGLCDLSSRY
MC4 receptor, sequence (P32245 whole entry): as above
T2 sequence (P41968 whole entry): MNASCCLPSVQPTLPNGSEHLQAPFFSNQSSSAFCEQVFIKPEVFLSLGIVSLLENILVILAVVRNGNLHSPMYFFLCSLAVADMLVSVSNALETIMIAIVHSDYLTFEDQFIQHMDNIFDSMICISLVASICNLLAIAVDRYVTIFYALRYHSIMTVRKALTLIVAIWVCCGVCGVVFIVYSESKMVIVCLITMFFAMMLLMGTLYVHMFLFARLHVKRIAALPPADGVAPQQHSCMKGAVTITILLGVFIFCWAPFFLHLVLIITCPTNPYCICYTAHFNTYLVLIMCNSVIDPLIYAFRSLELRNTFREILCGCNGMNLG
T3 sequence (P08684 whole entry, canonical isoform): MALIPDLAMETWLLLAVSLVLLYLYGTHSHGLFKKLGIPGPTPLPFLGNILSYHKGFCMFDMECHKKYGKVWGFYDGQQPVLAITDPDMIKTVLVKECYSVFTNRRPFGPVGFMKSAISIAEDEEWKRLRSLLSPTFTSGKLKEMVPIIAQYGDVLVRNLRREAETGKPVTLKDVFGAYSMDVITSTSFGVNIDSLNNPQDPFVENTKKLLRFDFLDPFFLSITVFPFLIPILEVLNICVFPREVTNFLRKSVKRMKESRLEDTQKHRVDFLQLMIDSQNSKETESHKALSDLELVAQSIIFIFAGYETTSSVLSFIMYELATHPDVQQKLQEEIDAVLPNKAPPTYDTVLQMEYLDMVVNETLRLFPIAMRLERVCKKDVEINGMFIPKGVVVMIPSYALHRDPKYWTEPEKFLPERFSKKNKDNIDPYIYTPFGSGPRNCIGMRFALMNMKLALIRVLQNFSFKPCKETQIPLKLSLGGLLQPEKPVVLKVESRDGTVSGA

EC50 (MC4 receptor): 7.54 nM
Ki (MC4 receptor (MC4R)): 40 nM
microsomal CLint at 1 μM [1]: 105 µL/min/mg
microsomal CLint at 1 μM [2]: 36 µL/min/mg
inhibition at 3 μM (CYP3A4): 59%
SMILES: C[C@@H]1CN(C(=O)[C@@H]2CN(c3ccc(C#N)nn3)C[C@H]2c2ccc(Cl)cn2)C[C@H](C)[C@@]1(O)c1ccccc1 [Example 29]

EC50 (MC4 receptor): 39.2 nM
Ki (MC4 receptor (MC4R)): 375 nM
microsomal CLint at 1 μM [1]: < 7 µL/min/mg
microsomal CLint at 1 μM [2]: < 8.5 µL/min/mg
inhibition at 3 μM (CYP3A4): 50%
SMILES: C[C@@H]1CN(C(=O)[C@@H]2CN(c3ccc(C#N)nn3)C[C@H]2c2ccc(F)cn2)C[C@H](C)[C@@]1(O)c1ccc(F)cc1 [Example 34]

EC50 (MC4 receptor): 168 nM
Ki (MC4 receptor (MC4R)): 1020 nM
microsomal CLint at 1 μM [1]: < 7 µL/min/mg
microsomal CLint at 1 μM [2]: 17 µL/min/mg
inhibition at 3 μM (CYP3A4): 59%
SMILES: C[C@@H]1CN(C(=O)[C@@H]2CN(c3ccc(Cl)nn3)C[C@H]2c2ccc(F)cn2)C[C@H](C)[C@@]1(O)c1ccc(F)cc1 [Example 36]

EC50 (MC4 receptor): 102 nM
Ki (MC4 receptor (MC4R)): 336 nM
microsomal CLint at 1 μM [1]: < 7 µL/min/mg
microsomal CLint at 1 μM [2]: < 8.5 µL/min/mg
inhibition at 3 μM (CYP3A4): 58%
SMILES: C[C@@H]1CN(C(=O)[C@@H]2CN(c3ccc(=O)[nH]n3)C[C@H]2c2ccc(F)cn2)C[C@H](C)[C@@]1(O)c1ccc(F)cc1 [Example 38]

EC50 (MC4 receptor): 284 nM
EC50 (human MC3 receptor): > 9630 nM
Ki (MC4 receptor (MC4R)): 2130 nM
inhibition at 3 μM (CYP3A4): 27%
SMILES: COc1ccc([C@@H]2CN(c3ccc(Cl)nn3)C[C@H]2C(=O)N2C[C@@H](C)[C@](O)(c3ccc(F)cc3)[C@@H](C)C2)nc1 [Example 44]

Second part, the compound before the results:

SMILES: COc1ccc([C@@H]2CN(c3cccnn3)C[C@H]2C(=O)N2C[C@@H](C)[C@](O)(c3ccc(F)cc3)[C@@H](C)C2)cn1 [Example 11]
EC50 (MC4 receptor): 111 nM
Ki (MC4 receptor (MC4R)): 417 nM
microsomal CLint at 1 μM [1]: 14 µL/min/mg

SMILES: COc1ccc(C2CN(c3cccnn3)CC2C(=O)N2CC(C)C(O)(c3ccccc3)C(C)C2)cn1 (stereo not shown) [Example 12]
EC50 (MC4 receptor): 91.6 nM
microsomal CLint at 1 μM [1]: > 352 µL/min/mg
microsomal CLint at 1 μM [2]: 88.5 µL/min/mg

SMILES: COc1ccc([C@@H]2CN(c3cncc(F)c3)C[C@H]2C(=O)N2C[C@@H](C)[C@](O)(c3ccc(F)cc3)[C@@H](C)C2)cn1 [Example 13]
EC50 (MC4 receptor): 37.6 nM
EC50 (human MC3 receptor): 1020 nM
Ki (MC4 receptor (MC4R)): 106 nM
inhibition at 3 μM (CYP3A4): 6%

SMILES: COc1ccc([C@@H]2CN(c3ccc(C#N)cn3)C[C@H]2C(=O)N2C[C@@H](C)[C@](O)(c3ccc(F)cc3)[C@@H](C)C2)cn1 [Example 14]
EC50 (MC4 receptor): 115 nM
EC50 (human MC3 receptor): 129 nM
microsomal CLint at 1 μM [1]: < 9 µL/min/mg
microsomal CLint at 1 μM [2]: < 9.75 µL/min/mg

SMILES: COc1ccc(C2CN(c3cncc(C#N)c3)CC2C(=O)N2CC(C)C(O)(c3ccc(F)cc3)C(C)C2)cn1 (stereo not shown) [Example 15]
EC50 (MC4 receptor): 53.9 nM
EC50 (human MC3 receptor): > 33400 nM
